Experimental data from patent US6472348B1, “Pyridone derivatives and herbicides” (Kumiai Chemical Industry Co., Ltd., priority 1996, dated 2002).

Experiments:
Assay type in all cases: in vivo
pale smartweed (Po) = assay: Test Example 3: herbicidal effects by upland field foliage treatment; design: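 grade of growth control; 5 = at least 90%; 4 = 70 to 90%; 3 = 50 to 70%; 2 = 30 to 50%; 1 = 10 to 30%; 0 = under 10%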
Protocol: (§1) (Test on Herbicidal Effects by Upland Field Foliage Treatment)
(§2) In a plastic pot (surface area: 120 cm^2) filled with sand, barnyardgrass (Ec), Diaitaria ciliaris (Di), pale smartweed (Po), slender amaranth (Am), common lambsquarters (Ch) and rice flatsedge (Ci) were sown and covered with soil and were cultured in a green house for 2 weeks. […] The plants were then cultured in the green house, and the evaluation of the herbicidal effects was conducted on the 14th day after the treatment in accordance with the standards as identified in Table 47. Symbol—represents “not tested”.

slender amaranth (Am) = assay: as above; design: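 grade of growth control; 5 = at least 90%; 4 = 70 to 90%; 3 = 50 to 70%; 2 = 30 to 50%; 1 = 10 to 30%; 0 = under 10%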
Protocol: as §1, §2

rice flatsedge (Ci) = assay: as above; design: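 grade of growth control; 5 = at least 90%; 4 = 70 to 90%; 3 = 50 to 70%; 2 = 30 to 50%; 1 = 10 to 30%; 0 = under 10%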
Protocol: as §1, §2

barnyardgrass (Ec) [1] = assay: as above; design: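 grade of growth control; 5 = at least 90%; 4 = 70 to 90%; 3 = 50 to 70%; 2 = 30 to 50%; 1 = 10 to 30%; 0 = under 10%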
Protocol: as §1, §2

Diaitaria ciliaris (Di) = assay: as above; design: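 grade of growth control; 5 = at least 90%; 4 = 70 to 90%; 3 = 50 to 70%; 2 = 30 to 50%; 1 = 10 to 30%; 0 = under 10%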
Protocol: as §1, §2

[2] = test system: common lambsquarters (Ch); assay: as above; design: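 grade of growth control; 5 = at least 90%; 4 = 70 to 90%; 3 = 50 to 70%; 2 = 30 to 50%; 1 = 10 to 30%; 0 = under 10%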
Protocol: as §1, §2

bulrush (Sc) = assay: Test Example 1: herbicidal effects by paddy field soil treatment; conditions: 100 g of the active ingredient per 10 ares, 21st day after the application, index 0-5 of Table 47;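 also: grade of growth control; 5 = at least 90%; 4 = 70 to 90%; 3 = 50 to 70%; 2 = 30 to 50%; 1 = 10 to 30%; 0 = under 10%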
Protocol: (§3) (Test on Herbicidal Effects by Paddy Field Soil Treatment)
(§4) In a plastic pot (surface area: 100 cm^2) filled with paddy field soil, barnyardgrass (Ec), monochoria (Mo) and bulrush (Sc) were sown after puddling and leveling, and flooded to a water depth of 3 cm. […] The dose was 100 g of the active ingredient per 10 ares. The plants were then cultured in a green house, and the evaluation of the herbicidal effects was conducted on the 21st day after the application in accordance with the standards as identified in Table 47.

barnyardgrass (Ec) [3] = assay: as above; conditions: 100 g of the active ingredient per 10 ares, 21st day after the application, index 0-5 of Table 47
Protocol: as §3, §4

monochoria (Mo) = assay: as above; conditions: 100 g of the active ingredient per 10 ares, 21st day after the application, index 0-5 of Table 47;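 also: grade of growth control; 5 = at least 90%; 4 = 70 to 90%; 3 = 50 to 70%; 2 = 30 to 50%; 1 = 10 to 30%; 0 = under 10%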
Protocol: as §3, §4

[4] = 100 g of the active ingredient per 10 ares, evaluated on the 14th day after treatment
[5] = 100 g active ingredient per 10 ares, evaluated 14th day after treatment

Row | SMILES | Herbicidal effects Po (pale smartweed (Po); [4]) | Herbicidal effects Am (slender amaranth (Am); [4]) | Herbicidal effects Ci (rice flatsedge (Ci); [4]) | Herbicidal effects Ec (barnyardgrass (Ec) [1]; [4]) | Herbicidal effects Di (Diaitaria ciliaris (Di); [4]) | Herbicidal effects Ch [2, 4] | Herbicidal effects Sc (bulrush (Sc)) | Herbicidal effects Ec (barnyardgrass (Ec) [3]) | Herbicidal effects Mo (monochoria (Mo)) | Herbicidal effects Po (pale smartweed (Po); [5]) | Herbicidal effects Am (slender amaranth (Am); [5]) | Herbicidal effects Ci (rice flatsedge (Ci); [5]) | Herbicidal effects Ec (barnyardgrass (Ec) [1]; [5]) | Herbicidal effects Di (Diaitaria ciliaris (Di); [5]) | Herbicidal effects Ch [2, 5]
1 | CCCC(Sc1cc(-c2ccc(C(F)(F)F)n(C)c2=O)ccc1Cl)C(=O)OCC (racemic) [1-116] | 5 | 5 | 5 | 4 | 4 | 5 |  |  |  |  |  |  |  |  | 
2 | CCOC(=O)C(C)Sc1cc(-c2ccc(C(F)(F)F)n(C)c2=O)c(Cl)cc1Cl (racemic) [1-124] | 5 | 5 | 5 | 5 | 5 | 5 | 5 | 5 | 5 |  |  |  |  |  | 
3 | Cn1c(C(F)(F)F)ccc(-c2cc(OCc3ccccc3)c(Cl)cc2F)c1=O [1-23] |  |  |  |  |  |  | 5 | 5 | 5 |  |  |  |  |  | 
4 | CCOC(=O)COc1cc(-c2ccc(C(F)(F)F)n(C)c2=O)c(Cl)cc1Cl [1-33] | 4 | 5 | 5 | 5 | 4 | 5 | 5 | 5 | 5 |  |  |  |  |  | 
5 | Cn1c(C(F)(F)F)ccc(-c2cc(Oc3ccccc3)c(Cl)cc2Cl)c1=O [1-36] |  |  |  |  |  |  | 5 | 5 | 5 |  |  |  |  |  | 
6 | Cn1c(C(F)(F)F)ccc(-c2cc(OC3CCCC3)c(Cl)cc2Cl)c1=O [1-40] |  |  |  |  |  |  | 5 | 5 | 5 |  |  |  |  |  | 
7 | CCOC(=O)CSc1cc(-c2ccc(C(F)(F)F)n(C)c2=O)c(F)cc1Cl [1-45] | 5 | 5 | 5 | 5 | 5 | 5 | 5 | 5 | 5 |  |  |  |  |  | 
8 | COC(=O)CSc1cc(-c2ccc(C(F)(F)F)n(C)c2=O)c(F)cc1Cl [1-46] | 5 | 5 | 5 | 5 | 5 | 5 | 5 | 5 | 5 |  |  |  |  |  | 
9 | Cn1c(C(F)(F)F)ccc(-c2cc(SCC(=O)OC3CCCC3)c(Cl)cc2F)c1=O [1-47] |  |  |  |  |  |  | 5 | 5 | 5 |  |  |  |  |  | 
10 | COCCOC(=O)CSc1cc(-c2ccc(C(F)(F)F)n(C)c2=O)c(F)cc1Cl [1-49] | 5 | 5 | 5 | 5 | 5 | 5 | 5 | 5 | 5 |  |  |  |  |  | 
11 | CCOC(=O)CSc1cc(-c2ccc(C(F)(F)F)n(C)c2=O)c(Cl)cc1Cl [1-53] |  |  |  |  |  |  | 5 | 5 | 5 |  |  |  |  |  | 
12 | COC(=O)CSc1cc(-c2ccc(C(F)(F)F)n(C)c2=O)c(Cl)cc1Cl [1-54] | 4 | 5 | 5 | 5 | 5 | 5 | 5 | 5 | 5 |  |  |  |  |  | 
13 | CCOC(=O)CNc1cc(-c2ccc(C(F)(F)F)n(C)c2=O)c(F)cc1Cl [1-63] | 5 | 5 | 5 | 5 | 5 | 5 |  |  |  |  |  |  |  |  | 
14 | CC(C)=NOC(=O)c1cc(-c2ccc(C(F)(F)F)n(C)c2=O)c(F)cc1Cl [1-68] | 5 | 5 | 5 | 5 | 5 | 5 | 5 | 5 | 5 |  |  |  |  |  | 
15 | COC(=O)C(Cl)Cc1cc(-c2ccc(C(F)(F)F)n(C)c2=O)c(F)cc1Cl (stereo not drawn) [1-70] | 5 | 5 | 5 | 5 | 5 | 5 | 5 | 5 | 5 |  |  |  |  |  | 
16 | Cn1c(C(F)(F)F)ccc(-c2cc(NS(C)(=O)=O)c(Cl)cc2Cl)c1=O [1-75] |  |  |  |  |  |  | 5 | 5 | 5 |  |  |  |  |  | 
17 | Cc1cc(-c2ccc(Cl)cc2Cl)c(=O)[nH]c1C(F)(F)F [1-97] |  |  |  |  |  |  | 5 | 5 | 5 |  |  |  |  |  | 
18 | CCOC(=O)COc1cc(-c2ccc(C(F)(F)F)n(C)c2=O)ccc1Cl [1-107] |  |  |  |  |  |  | 5 | 5 | 5 |  |  |  |  |  | 
19 | Cn1c(C(F)(F)F)ccc(-c2ccc(Cl)c(SCC(=O)OC3CCCC3)c2)c1=O [1-115] |  |  |  |  |  |  | 5 | 5 | 5 |  |  |  |  |  | 

Row | SMILES | Herbicidal effects Po (pale smartweed (Po); [4]) | Herbicidal effects Am (slender amaranth (Am); [4]) | Herbicidal effects Ci (rice flatsedge (Ci); [4]) | Herbicidal effects Ec (barnyardgrass (Ec) [1]; [4]) | Herbicidal effects Di (Diaitaria ciliaris (Di); [4]) | Herbicidal effects Ch [2, 4] | Herbicidal effects Sc (bulrush (Sc)) | Herbicidal effects Ec (barnyardgrass (Ec) [3]) | Herbicidal effects Mo (monochoria (Mo)) | Herbicidal effects Po (pale smartweed (Po); [5]) | Herbicidal effects Am (slender amaranth (Am); [5]) | Herbicidal effects Ci (rice flatsedge (Ci); [5]) | Herbicidal effects Ec (barnyardgrass (Ec) [1]; [5]) | Herbicidal effects Di (Diaitaria ciliaris (Di); [5]) | Herbicidal effects Ch [2, 5]
20 | CCCCCOC(=O)CSc1cc(-c2ccc(C(F)(F)F)n(C)c2=O)c(Cl)cc1Cl [1-123] | 5 | 5 | 5 | 4 | 5 | 5 | 5 | 5 | 5 |  |  |  |  |  | 
21 | Cn1c(C(F)(F)F)ccc(-c2cc(SCC(=O)O)c(Cl)cc2Cl)c1=O [1-127] | 5 | 5 | 5 | 4 | 5 | 5 | 5 | 5 | 5 |  |  |  |  |  | 
22 | Cn1c(C(F)(F)F)ccc(-c2cc(SC3CCCC3)c(Cl)cc2Cl)c1=O [1-128] |  |  |  |  |  |  | 4 | 5 | 5 |  |  |  |  |  | 
23 | CC(C)OCCOC(=O)CSc1cc(-c2ccc(C(F)(F)F)n(C)c2=O)c(Cl)cc1Cl [1-129] | 5 | 5 | 5 | 5 | 5 | 5 |  |  |  |  |  |  |  |  | 
24 | CCCOC(=O)CSc1cc(-c2ccc(C(F)(F)F)n(C)c2=O)c(Cl)cc1Cl [1-130] |  |  |  |  |  |  | 5 | 5 | 5 |  |  |  |  |  | 
25 | CCOC(=O)COC(=O)c1cc(-c2ccc(C(F)(F)F)n(C)c2=O)c(F)cc1Cl [1-142] | 5 | 5 | 5 | 5 | 5 | 5 | 5 | 5 | 5 |  |  |  |  |  | 
26 | Cn1c(C(F)(F)F)ccc(-c2cc(C(N)=O)c(Cl)cc2F)c1=O [1-145] | 5 | 5 | 5 | 5 | 5 | 5 | 5 | 5 | 5 |  |  |  |  |  | 
27 | Cn1c(C(F)(F)F)ccc(-c2cc(C(=O)NS(C)(=O)=O)c(Cl)cc2F)c1=O [1-147] |  |  |  |  |  |  | 5 | 5 | 5 |  |  |  |  |  | 
28 | COC(=O)Oc1cc(-c2ccc(C(F)(F)F)n(C)c2=O)c(F)cc1Cl [1-153] |  |  |  |  |  |  | 5 | 5 | 5 |  |  |  |  |  | 
29 | Cn1c(C(F)(F)F)ccc(-c2ccc3c(c2)NC(=O)CO3)c1=O [2-30] |  |  |  |  |  |  | 5 | 5 | 5 |  |  |  |  |  | 
30 | Cn1c(C(F)(F)F)ccc(-c2cc(OC3CCCO3)c(Cl)cc2F)c1=O (stereo not drawn) [Compound 1-183] | 5 | 5 | 5 | 4 | 5 | 5 | 5 | 5 | 5 |  |  |  |  |  | 
31 | C=CC(=O)c1cc(-c2ccc(C(F)(F)F)n(C)c2=O)c(F)cc1Cl [Compound 1-198] |  |  |  |  |  |  | 5 | 5 | 5 | 5 | 5 | 5 | 5 | 5 | 5
32 | Cn1c(C(F)(F)F)ccc(-c2cc(OC3CCCO3)c(Cl)cc2Cl)c1=O (stereo not drawn) [Compound 1-212] |  |  |  |  |  |  | 4 | 5 | 5 |  |  |  |  |  | 
33 | Cn1c(C(F)(F)F)ccc(-c2cc3c(cc2F)OCC(=O)N3CC2CO2)c1=O (stereo not drawn) [Compound 2-20] |  |  |  |  |  |  | 5 | 5 | 5 |  |  |  |  |  | 
34 | Cn1cc(-c2ccc(Cl)cc2)c(=O)cc1C(F)(F)F [Compound 6-1] |  |  |  |  |  |  | 5 | 5 | 5 |  |  |  |  |  | 
35 | Cn1c(C(F)(F)F)ccc(-c2cc(O)c(Cl)cc2F)c1=O [Compound No. 1-13] | 5 | 5 | 5 | 5 | 5 | 5 | 5 | 5 | 5 |  |  |  |  |  | 
36 | CCOC(=O)COc1cc(-c2ccc(C(F)(F)F)n(C)c2=O)c(F)cc1Cl [Compound No. 1-19] | 5 | 5 | 5 | 5 | 5 | 5 | 5 | 5 | 5 |  |  |  |  |  | 
37 | CCOC(=O)C(Cl)Cc1cc(-c2ccc(C(F)(F)F)n(C)c2=O)c(F)cc1Cl (stereo not drawn) [Compound No. 1-139, ethyl 2-chloro-3-[2-chloro-4-fluoro-5-(1methyl-6-trifluoromethyl-2(1H)pyridon-3-yl)]phenyl propionate] | 5 | 5 | 5 | 5 | 5 | 5 |  |  |  |  |  |  |  |  | 
